Results reported in the NIST ThermoML archive (doi:10.1016/j.tca.2008.06.010).
“And” between values parts separate entries of the source, which are not always exact repeats. Identical values can stand only once.

How the values were obtained:
[1] = molar heat capacity at constant pressure; conditions: 101.33 kPa, Crystal
[2] = 293 K; 101.33 kPa; Crystal; X-ray diffraction

[Nb+5].[Nb+5].[O-2].[O-2].[O-2].[O-2].[O-2].[O-2].[O-2].[Sr+2].[Sr+2] [niobium strontium oxide (Nb2Sr2O7)]
molar heat capacity at constant pressure, [1]
Conditions	Relaxation time	Small sample (50 mg) DSC
139.7 K	137.01 J/K/mol	–
148.6 K	144.41 J/K/mol	–
158.2 K	152.04 J/K/mol	–
168.3 K	158.82 J/K/mol	–
179 K	166.7 J/K/mol	–
190.5 K	173.8 J/K/mol	–
201.5 K	179.2 J/K/mol	–
203 K	180.19 J/K/mol	–
203.6 K	180.24 J/K/mol	–
205.7 K	181.22 J/K/mol	–
207.7 K	181.67 J/K/mol	–
209.7 K	183.21 J/K/mol	–
211.7 K	184.53 J/K/mol	–
213.8 K	185.64 J/K/mol	–
215.8 K	187.13 J/K/mol	–
217.8 K	188.51 J/K/mol	–
219.8 K	190.01 J/K/mol	–
221.8 K	191.02 J/K/mol	–
223.8 K	191.53 J/K/mol	–
225.9 K	192.06 J/K/mol	–
227.9 K	193.45 J/K/mol	–
229.9 K	193.04 J/K/mol	–
231.9 K	193.63 J/K/mol	–
233.9 K	194.26 J/K/mol	–
235.9 K	196.53 J/K/mol	–
238 K	196.42 J/K/mol	–
240 K	197.53 J/K/mol	–
242 K	197.69 J/K/mol	–
244 K	197.75 J/K/mol	–
246.1 K	198.29 J/K/mol	–
248.1 K	200 J/K/mol	–
250.1 K	200.61 J/K/mol	–
252.1 K	201.6 J/K/mol	–
254.1 K	202.35 J/K/mol	–
256.1 K	203.13 J/K/mol	–
258.1 K	203.04 J/K/mol	201.78 J/K/mol and 201.57 J/K/mol
260.2 K	205.33 J/K/mol	–
262.2 K	206.4 J/K/mol	–
264.2 K	207.59 J/K/mol	–
266.2 K	208.79 J/K/mol	–
268.2 K	209.43 J/K/mol	–
268.3 K	–	206.1 J/K/mol and 204.8 J/K/mol
270.2 K	210.44 J/K/mol	–
272.2 K	211.82 J/K/mol	–
274.3 K	212.04 J/K/mol	–
276.3 K	212.05 J/K/mol	–
278.3 K	212.41 J/K/mol	–
278.5 K	–	208.78 J/K/mol and 208.32 J/K/mol
280.3 K	212.81 J/K/mol	–
282.3 K	212.94 J/K/mol	–
284.3 K	213.33 J/K/mol	–
286.3 K	213.1 J/K/mol	–
288.3 K	213.9 J/K/mol	–
288.7 K	–	211.87 J/K/mol and 212.56 J/K/mol
290.4 K	214.19 J/K/mol	–
292.4 K	214.81 J/K/mol	–
294.4 K	215.93 J/K/mol	–
296.4 K	216.6 J/K/mol	–
298.4 K	219.18 J/K/mol	–
298.9 K	–	216.24 J/K/mol [middle of 10 runs]
300.4 K	218.65 J/K/mol	–
309.1 K	–	220.12 J/K/mol [middle of 11 runs]
319.4 K	–	223.23 J/K/mol [middle of 9 runs]
329.6 K	–	225.99 J/K/mol [middle of 11 runs]
339.8 K	–	228.99 J/K/mol [middle of 10 runs]
350 K	–	230.93 J/K/mol [middle of 11 runs]

Conditions	mass density [kg/m3]
[2]	5206
